Data on six compounds can be found in US5981256A, “Recombinant stratum corneum chymotryptic enzyme (SCCE)” (priority 1993, dated 1999).

Square brackets hold non-standard residues; d marks the D form. Peptide text beside a SMILES is read from it. * marks the point of attachment. Sta = CC(C)C[C@H](N)[C@@H](O)CC(=O)O; Isovaleryl = CC(C)CC(=O)*

Assay [1] has as its system plantar stratum corneum. The assay is described as follows: Cell release (cell shedding) from plantar stratum corneum in vitro. Format: cell-based. Particulars: Homo sapiens, 16 hours at 37° C., mean and SD for five tissue pieces. On the procedure: A method to quantify the cell shedding was then developed, which allowed studies on the effects of various parameters such as temperature, pH, and enzyme inhibitors. Cylinders of plantar stratum corneum with diameter 3 mm were prepared with a biopsy punch from flakes of tissue taken and freed from loosely attached surface cells as described above in 1.1. […] The remaining tissue was removed and placed in fresh media for continued incubation. Tubes with released cells were centrifuged for 2 min at 5000 g to collect the cells. The cell pellets were washed once with 0.5 ml of phosphate buffered saline and then treated at 60° C. for 1.5 hours with 0.6 ml of 1 M sodium hydroxide. The alkali soluble protein was quantified according to Lowry et al., 1951, and taken as a measure of the amount of released cells.

For assay [2], the target named is proteinase associated with plantar stratum corneum cells (native human stratum corneum chymotryptic enzyme, SCCE) (Homo sapiens, UniProt P49862). Description: Hydrolysis of S-2586 by the proteinase associated with plantar stratum corneum cells (suspended cells). Particulars: for Activity (%) (±SD, n = 3), hydrolysis of S-2586: pH 8, control = 100.
The target of assay [3] is T1, 25 kD caseinolytic enzyme of plantar corneocytes (native stratum corneum chymotryptic enzyme, SCCE) (Homo sapiens, UniProt P49862).
T1 construct: from tissue; host or cells: human plantar stratum corneum, dissociated corneocytes (suspended cells, SDS-extract or KCl-extract)
The assay is described as follows: Zymography (SDS-PAGE with co-polymerized casein) of extracts of plantar corneocytes. Format: biochemical. Particulars: pH 8. On the procedure:
C: The effect of inhibitors. sc=SDS-extract of plantar corneocytes; c=bovine chymotrypsin; t=bovine trypsin. The inhibitors were present during pretreatment with Triton X-100 and the subsequent incubation. […] Leupeptin and chymostatin were added as solutions in dimethylsulphoxide (DMSO). Buffer for pretreatment and incubation=0.1 M Tris-HCl pH 8 with final concentration of DMSO 1% (v/v). Other conditions as in A.
SDS-PAGE and Coomassie blue-staining (A) and zymography after SDS-PAGE with co-polymerized casein (B) of fractions 2, 6, and 10 from the chromatogram shown in FIG. 10. Molecular weight markers to the left.
Therefore experiments with zymography were performed. For this reason KCl extracts of corneocytes were prepared for electrophoresis according to Laemmli (Laemmli 1970) but with no reducing agent in the sample buffer and with no heating of the samples. Samples were also prepared by means of extraction of dissociated plantar corneocytes with Laemmli's sample buffer without reducing agent at room temperature. For zymography a modification of the procedure of Horie et al. (Horie et al. 1984) was adopted. Polyacrylamide gel elctrophoresis in the presence of sodium dodecyl sulphate (SDS-PAGE) was carried out according to Laemmli in 12.5% gels with 1% co-polymerized heat-denatured casein. […]

The subject of assay [4] is plantar stratum corneum. Conditions: cited from earlier work.
Assay [5] deals with T2, recombinant human stratum corneum chymotryptic enzyme (rSCCE), SEQ ID NO:2 (Homo sapiens, UniProt P49862).
T2 construct: made in house; host or cells: murine C127 cells (ATCC CRL 1616), vector pS507
Description: S-2586 hydrolysing activity of recombinant SCCE with inhibitors. Format: biochemical. Particulars: no inhibitor = 100. The method, then: (§1) Incubations were performed at 37° C. in microtiter plates. The total incubation volume was 135 μl. Each incubation mixture contained Tris-HCl pH 8.0 (final concentration 0.08 M), KCl (final concentration 0.2 M), 100 μl substrate solution, 25 μl enzyme source (appropriately diluted in 0.1 M Tris-HCl pH 8.0, 1.0 M KCl) and 10 μl inhibitor solution.
(§2) In FIG. 9, A-C, MeO-Suc-Arg-Pro-Tyr-pNA (S-2586, initial concentration 1.2 mM) was used as substrate. In D the initial concentration of both substrates was 1.2 mM.
The experimental design was as outlined in Example 3.2.

The target in assay [6] is bovine chymotrypsin (Bos taurus, UniProt P00766). Description: Proteinase assay with chromogenic substrate S-2586, bovine chymotrypsin. Format: biochemical. Conditions: S-2586 1.2 mM; pH 8.0; 37° C.; FIG. 9B. On the procedure: (§3) Stock solution of MeO-Suc-Arg-Pro-Tyr-pNA (S-2586) was prepared in distilled water, of Suc-Ala-Ala-Pro-Phe-pNA (SEQ ID NO:11) (Boehringer, Mannheim, Germany) in 1-methyl-2-pyrrolidone (final concentration of solvent in incubation mixtures 4%) and of chymostatin in dimethyl sulphoxide (final concentration of solvent in incubation mixtures 1%). Cathepsin G from purulent human sputum was obtained from E. Lotti, Geneva, Switzerland. The source of SCCE was KCl-extract of dissociated plantar corneocytes prepared as described above.
as §1, §2

The test system of assay [7] is desmoglein I (DG I) in plantar stratum corneum. The assay is described as follows: Degradation of desmoglein I (DG I) in plantar stratum corneum during cell shedding in vitro (immunoblot). Format: cell-based, human. Particulars: inhibitor 330 μM; 24 hours. On the procedure: The fate of desmoglein I (DG I) during cell shedding in vitro from plantar stratum corneum was studied. Plantar stratum corneum was incubated as described above in 1.1, and still cohesive tissue was separated from dissociated cells. Cells and tissue were extracted in a buffer containing 0.1 M Tris-HCl pH 9, 9 M urea, 2% sodium dodecylsulphate, 1% mercaptoethanol, 1 ml buffer per 20 mg of tissue, for 15 hours at 37° C. The extracts were prepared for polyacrylamide gel electrophoresis in 7.5% gels in the presence of sodium dodecyl sulphate (SDS-PAGE) according to Laemmli (Laemmli, 1970), followed by electrophoretic transfer (Towbin et al., 1979) to a nitrocellulose membrane (Bio-Rad, Richmond, Calif.) which was probed with a rabbit polyclonal antiserum prepared against DG I purified from bovine muzzles (Gorbsky et al. 1985). Bound antibodies were detected with alkaline phosphatase conjugated goat anti-rabbit immunoglobulins (Bio-Rad, Richmond, Calif.) (Blake et al. 1984).
SDS-PAGE and immunoblotting was performed as described above. Densitometric scannings of the immunblots were carried out in a Shimadzu CS-9000 flying spot scanner (Shimadzu, Kyoto, Japan) with reflected light at 560 nm in the zigzag mode.
On the technique in general: A western blot detects proteins with antibodies after separation by electrophoresis.

The target of assay [8] is T3, human cathepsin G (from purulent human sputum) (Homo sapiens, UniProt P08311).
T3 construct: Cathepsin G from purulent human sputum; tissue E. Lotti, Geneva, Switzerland; host or cells: purulent human sputum
T3 sequence (P08311 21-244 limits assumed): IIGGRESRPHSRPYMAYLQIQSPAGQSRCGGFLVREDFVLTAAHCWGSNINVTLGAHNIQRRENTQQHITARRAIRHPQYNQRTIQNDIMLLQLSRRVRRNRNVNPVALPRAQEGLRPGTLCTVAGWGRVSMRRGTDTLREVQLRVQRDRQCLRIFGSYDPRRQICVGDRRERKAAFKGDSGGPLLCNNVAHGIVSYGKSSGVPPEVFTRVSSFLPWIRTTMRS
Description: Proteinase assay with chromogenic substrate S-2586, human cathepsin G. Format: biochemical. Particulars: S-2586 1.2 mM; pH 8.0; 37° C.; FIG. 9B. On the procedure: as §3, §1, §2

The target in assay [9] is T4, native stratum corneum chymotryptic enzyme (SCCE), KCl-extract of dissociated plantar corneocytes (Homo sapiens, UniProt P49862).
T4 construct: from tissue; host or cells: human plantar stratum corneum, dissociated corneocytes (suspended cells, SDS-extract or KCl-extract)
The assay is described as follows: Proteinase assay with chromogenic substrate S-2586, native SCCE. Format: biochemical. Conditions: S-2586 1.2 mM, pH 8.0, FIG. 9B. On the procedure:
as §3, §1, §2

Where [10] appears, read: pH 8, read-out: Activity (%) (±SD, n = 3), hydrolysis of S-2586.

Usually inhibition stands for the drop in the measured response relative to a control, in per cent.

Sequence of proteinase associated with plantar stratum corneum cells (native human stratum corneum chymotryptic enzyme, SCCE) (P49862 30-253): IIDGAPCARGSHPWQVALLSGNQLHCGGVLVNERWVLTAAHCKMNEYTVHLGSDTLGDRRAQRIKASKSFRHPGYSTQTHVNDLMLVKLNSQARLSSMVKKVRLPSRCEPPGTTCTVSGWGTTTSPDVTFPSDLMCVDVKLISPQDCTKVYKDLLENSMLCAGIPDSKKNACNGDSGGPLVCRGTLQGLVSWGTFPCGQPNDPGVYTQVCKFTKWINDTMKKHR
T2 sequence (P49862 30-253): as above
T1 sequence (P49862 30-253): as above
T4 sequence (P49862 30-253): as above

Turning to `CC(C)CC(=O)N[C@H](C(=O)N[C@H](C(=O)N[C@@H](CC(C)C)[C@@H](O)CC(=O)N[C@@H](C)C(=O)N[C@@H](CC(C)C)[C@@H](O)CC(=O)O)C(C)C)C(C)C` [Pepstatin, pepstatin] (Isovaleryl-VV[Sta]A[Sta]-OH), the inhibition at 100 µM in assay [1] (pepstatin 1 × 10^-4 mol/l) came to 8 ± 4%.

Turning to `O=S(=O)(F)Cc1ccccc1` [PMSF, phenylmethylsulphonyl fluoride], the “Activity (%) (±SD, n = 3), hydrolysis of S-2586” value in assay [2] (PMSF 1 mM, preincubated 1 hour at room temperature) is 8 ± 3%.

In assay [1] (iodoacetamide 1 × 10^-3 mol/l), `NC(=O)CI` [Iodoacetamide, iodoacetamide] had an inhibition at 1000 µM of 6 ± 13%.

On to `CC(=O)N[C@@H](CC(C)C)C(=O)N[C@@H](CC(C)C)C(=O)N[C@H](C=O)CCCNC(=N)N` [Leupeptin, leupeptin], for which the “Inhibition of caseinolytic activity (zymography)” value in [3] (leupeptin 160 μM) is given as “not by leupeptin”. The activity at 325 µM in assay [2] (setting [10]) came out at 93 ± 3%. Further, the “Effect on the in vitro cell shedding” value in [4] was “no effect”.

Turning to `O=C(O)CN(CCN(CC(=O)O)CC(=O)O)CC(=O)O` [EDTA], the activity at 4200 µM in assay [2] (setting [10]) was 109 ± 1%.

As to chymostatin, the “Activity (%), S-2586 hydrolysing activity” value in [5] (chymostatin 0.64 μM) is 74.9%; in [5] (chymostatin 2.56 μM) it was 33%; in assay [5] (chymostatin 41 μM), 1.9%. In addition, the “Inhibition of S-2586 hydrolysis” value in assay [6], in assay [8] and in [9] (37° C.) was “caused inhibition” throughout. Further, the “Inhibition of the transformation of anti-DG I positive components from 160 kD to 95 and 80 kD” value in [7] is “inhibition”. In addition, the “Inhibition of caseinolytic activity (zymography)” value in assay [3] (chymostatin 40 μM) is recorded as “could be inhibited”. Also, the “Activity (%) (±SD, n = 3), hydrolysis of S-2586” value in assay [2] (chymostatin 11 μM, 5% DMSO) is 66 ± 9%; in assay [2] (chymostatin 55 μM, 5% DMSO), 32 ± 0%; in assay [2] (chymostatin 275 μM, 5% DMSO), 15 ± 3%. In [4] (first step, takes place with or without EDTA), the “Inhibition of the first step of cell shedding in vitro” value is listed as “could be inhibited”. Besides, the “Inhibition of the second step of cell shedding in vitro” value in assay [4] (second step, only in the presence of EDTA) is “could be inhibited”. For the same compound, the “Inhibitor concentration that caused 50% inhibition, SCCE compared with chymotrypsin and cathepsin G” value in [9] is reported as “more than three orders of magnitude higher”.
